Legend:
[1] = target: rα3β4 nAChR (Rattus norvegicus, UniProt P04757+P12392); type: cell-based
[2] = tested on: rα6/α3β4 nAChR; type: cell-based, rat
[3] = tested on: RAW264.7 cells; type: cell-based, mouse
[4] = tested on: RAW264.7 cells; type: cell-based, mouse; remark: listed apart in the source
[5] = tested on: α3β4 nAChR; conditions: cited from earlier work
[6] = in vivo; cited from earlier work

Sequence of rα3β4 nAChR (P04757 26-499 limits assumed): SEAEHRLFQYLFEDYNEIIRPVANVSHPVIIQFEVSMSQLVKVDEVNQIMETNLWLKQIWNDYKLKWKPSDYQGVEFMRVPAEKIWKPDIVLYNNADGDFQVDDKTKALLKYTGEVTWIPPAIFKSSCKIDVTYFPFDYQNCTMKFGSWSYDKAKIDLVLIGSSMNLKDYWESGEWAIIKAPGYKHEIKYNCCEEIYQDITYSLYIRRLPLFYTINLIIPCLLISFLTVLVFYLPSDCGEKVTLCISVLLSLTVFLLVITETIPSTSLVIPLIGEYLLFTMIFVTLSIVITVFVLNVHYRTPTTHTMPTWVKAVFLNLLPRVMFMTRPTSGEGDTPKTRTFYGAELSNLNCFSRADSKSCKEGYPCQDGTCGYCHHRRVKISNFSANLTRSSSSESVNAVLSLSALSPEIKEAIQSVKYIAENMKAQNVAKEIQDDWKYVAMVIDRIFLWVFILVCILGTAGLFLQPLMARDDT
Sequence of rα3β4 nAChR (P12392 21-495 limits assumed): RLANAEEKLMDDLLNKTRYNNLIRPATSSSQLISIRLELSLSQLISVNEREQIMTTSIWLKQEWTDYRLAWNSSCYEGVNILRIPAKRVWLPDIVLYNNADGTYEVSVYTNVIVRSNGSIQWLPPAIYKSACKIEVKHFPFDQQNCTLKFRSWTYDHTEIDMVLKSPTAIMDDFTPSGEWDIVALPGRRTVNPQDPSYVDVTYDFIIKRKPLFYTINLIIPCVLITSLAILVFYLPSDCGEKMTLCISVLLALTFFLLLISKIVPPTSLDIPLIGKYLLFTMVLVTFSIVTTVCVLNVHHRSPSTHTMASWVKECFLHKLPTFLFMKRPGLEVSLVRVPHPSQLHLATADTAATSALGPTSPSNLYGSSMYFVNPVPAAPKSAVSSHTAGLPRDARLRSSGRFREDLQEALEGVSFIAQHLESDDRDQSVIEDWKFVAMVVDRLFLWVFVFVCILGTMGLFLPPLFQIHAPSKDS

Compound	Hill Slope [1]	change of IC50 compared with WT TxID [1]	inhibitory activity at rα3β4 (in words) [1]	potency at α3β4 compared with native TxID (in words) [1]	inhibitory activity at rα6/α3β4 (in words) [2]	fluorescence intensity, flow cytometry (in words) [3]	red fluorescence labelling of cells (in words) [4]	IC50 [5]	anti-nicotine addiction effect (in words) [6]
CC[C@H](C)[C@@H]1NC(=O)[C@@H]2CCCN2C(=O)[C@H](CO)NC(=O)[C@H](CCSC)NC(=O)[C@H](C)NC(=O)[C@H](CO)NC(=O)[C@@H]2CSSC[C@H](NC(=O)CNC(=O)c3ccc(-c4c5ccc(=[N+](C)C)cc-5oc5cc(N(C)C)ccc45)c(C(=O)[O-])c3)C(=O)N[C@@H](CSSC[C@@H](C(N)=O)NC1=O)C(=O)N[C@@H](CO)C(=O)N[C@@H](Cc1c[nH]cn1)C(=O)N1CCC[C@H]1C(=O)N[C@@H](C(C)C)C(=O)N2 [TxID-F]	0.8 (0.7–0.9)	3 fold	most inhibitory activity	maintained the same order of potency	followed with the rα6/α3β4 subtype	strong fluorescence intensity	red fluorescence signal was observed on the RAW264.7 cells	–	–
CC[C@H](C)[C@@H]1NC(=O)[C@@H]2CCCN2C(=O)[C@H](CO)NC(=O)[C@H](CCSC)NC(=O)[C@H](C)NC(=O)[C@H](CO)NC(=O)[C@@H]2CSSC[C@H](NC(=O)CN)C(=O)N[C@@H](CSSC[C@@H](C(N)=O)NC1=O)C(=O)N[C@@H](CO)C(=O)N[C@@H](Cc1c[nH]cn1)C(=O)N1CCC[C@H]1C(=O)N[C@@H](C(C)C)C(=O)N2 [TxID]	0.6 (0.5–0.7)	–	–	–	–	–	–	[…]	anti-nicotine addiction effect

From article PMC9410468 (Marine Drugs, 2022)
